Where two headings read alike, the source gives them in different places.
Key:
[1] = test system: human granulocyte-macrophage precursor cells; type: cell-based
Source text: Preparation of Cells. Human bone marrow cells were collected by aspiration from the posterior iliac crest of normal healthy volunteers, treated with heparin and the mononuclear population separated by Ficoll-Hypaque gradient centrifugation. Cells were washed twice in Hanks balanced salt solution, counted with a hemacytometer and their viability was >98% as assessed by trypan blue exclusion.
Assay of Colony-Forming Unit Granulocyte-Macrophage (CFU-GM) for Drug Cytotoxicity. The culture assay for CFU-GM was performed using a bilayer soft-agar method as recently described (Sommadossi et al, Antimicrob. Agents Chemother. 31, 452-454, 1987). McCoy 5A nutrient medium supplemented with 15% dialyzed fetal bovine serum (heat inactivated at 56° C. for 30 min.) (Gibco Laboratories, Grand Island, N.Y.) was used in all experiments. This medium was completely lacking in thymidine and uridine. Cells were cloned in 0.3% agar in the presence of increasing concentrations of the modulating compound or in medium alone (control). After 14 days of incubation at 37° C. in a humidified atmosphere of 5% CO2 in air, colonies (≧50 cells) were counted using an inverted microscope.
The toxicities of a variety of polyoxometalates with respect to human bone marrow cells (human granulocyte-macrophage precursor cells) were assessed.

[2] = test system: human bone marrow cells; details: background statement; cited from earlier work
[3] = reason it must be taken intravenously; cited from earlier work
[4] = test system: human PBM cells; assay: Cytotoxicity assay on uninfected PHA stimulated human PBMC (trypan blue); type: cell-based; details: Table 1; read-out: IC50 Toxicity in Human PBM Cells
Procedure: Cells. […] PBS), and pelleted at 300×g for 10 minutes. […] Cytotoxicity assay. The drugs were evaluated for their potential toxic effects on uninfected PHA stimulated human PBMC. Flasks were seeded so that the final cell concentration was 2×10^5 cells/ml. The cells were cultured with and without drug for 6 days, at which time aliquots were counted for cell viability, as assessed by the trypan blue dye-exclusion method using a hemacytometer. The median inhibitory concentration (IC50) was calculated using the median effect method (Chou et al, Elsevier-Biosoft, Elsevier Science Publishers, Cambridge, U.K., 1985; Chou et al, Adv. Enz. Regul. 22, 27-55, 1984). Median-effect method. Dose-effect relationships were analyzed by the median-effect equation (Chou et al, Adv. Enz. Regul. 22, 27-55, 1984). The slope (m) and median effective and inhibitory concentration (EC50 and IC50) values were obtained by using a computer program developed by Chou and Chou (Chou et al, Elsevier-Biosoft, Elsevier Science Publishers, Cambridge, U.K., 1985).

[5] = Comparison of toxicity of polyoxometalate compounds in mice (mortality, haematology); type: in vivo; parameters: MCV (mean corpuscular volume): unit not given here; details: BID × 6, 60 mkd i.p.
Source text: Comparison of Toxicity of Polyoxometalate Compounds Mice.
In vivo antiviral experiments. […] Treatment was continued daily for 6 or 10 days.

[6] = test system: HIV-1 (strain LAV-1); assay: microbe, parasite or virus in culture; type: cell-based
Procedure: Cells. Human peripheral blood mononuclear cells (PBMC) from healthy HIV-1 seronegative and hepatitis B virus seronegative donors were isolated by Ficoll-Hypaque discontinuous gradient centrifugation at 1,000×g for 30 minutes, washed twice in phosphate-buffered saline (pH 7.2; PBS), and pelleted at 300×g for 10 minutes. Before infection, the cells were stimulated by phytohemagglutinin (PHA) at a concentration of 6 μg/ml for three days in RPMI 1640 medium supplemented with 15% heat-inactivated fetal calf serum, 1.5 mM L-glutamine, penicillin (100 U/ml), streptomycin (100 μg/ml), and 4mM sodium bicarbonate buffer.
Viruses. HIV-1 (strain LAV-1) was obtained from Dr. P. Feorino (Centers for Disease Control, Atlanta, Ga.). The virus was propagated in human PBMC using RPMI 1640 medium, as described previously (McDougal et al, J. Immun. Meth. 76, 171-183, 1985) without PHA and supplemented with 7% v/v interleukin-2 (Advanced Biotechnologies, Silver Spring, Md.), 7 μg/ml DEAE-dextran (Pharmacia, Uppsala, Sweden), and 370 U/ml anti-human leucocyte (alpha) interferon (ICN, Lisle, Ill.). Virus obtained from cell-free culture supernatant was titrated and stored in aliquots at −80° C. until use.
Inhibition of virus replication in human PBMC. Uninfected PHA-stimulated human PBMC were uniformly distributed among 25 cm^2 flasks to give a 5 ml suspension containing about 2×10^6 cells/ml. Suitable dilutions of virus were added to infect the cultures. The mean reverse transcriptase (RT) activity of the inocula was 50,000 decompositions per min/ml corresponding to about 100 TCID50, as determined by Groopman et al. (Groopman et al, AIDS Res. Human Retro. 3, 71-85, 1987. The drugs at twice their final concentrations in 5 ml of RPMI 1640 medium, supplemented as described above, were added to the cultures. Uninfected and untreated PBMC at equivalent cell densities were grown in parallel as controls. The cultures were maintained in a humidified 5% CO2-95% air incubator at 37° C. for six days after infection, at which point all cultures were sampled for supernatant reverse transcriptase (RT) activity.
RT activity assay. Six ml supernatant from each culture was clarified from cells at 300×g for 10 minutes. Virus particles were pelleted from 5 ml samples at 40,000 rpm for 30 minutes using a Beckman 70.1 Ti rotor and suspended in 200 μl of virus disrupting buffer (50 mM Tris-Cl, pH 7.8, 800 mM NaCl, 20% glycerol, 0.5 mM phenylmethyl sulfonyl fluoride, and 0.5% Triton X-100).
The RT assay was performed in 96-well microtiter plates, as described by Spira et al. (Spira et al, J. Clin. Microbiol. 22, 97-99, 1987). The reaction mixture, which contained 50 mM Tris-Cl pH 7.8, 9 mM MgCl2, 5 mM dithiothreitol (DTT), 4.7 μg/ml (rA)n. (dT)12-18, 140 μM dATP, and 0.22 μM [^3H]TTP, specific activity 78.0 Ci/mmol, equivalent to 17,300 cpm/pmol; NEN Research Products, Boston, Mass., was added to each well. The sample (20 μl) was added to the reaction mixture which was then incubated at 37° C. for 2 hours. The reaction was terminated by the addition of 100 μl 10% trichloroacetic acid (TCA) containing 0.45 mM sodium pyrophosphate. The acid-insoluble nucleic acids which precipitated were collected on glass filters using a Skatron semi-automatic harvester. The filters were washed with 5% TCA and 70% ethanol, dried, and placed in scintillation vials. Four ml of scintillation fluid (Econofluor, NEN Research Products, Boston, Mass.) were added and the amount of radioactivity in each sample was determined using a Packard Tri-Carb liquid scintillation analyzer (model 2,000CA). The results were expressed in dpm/ml of original clarified supernatant.
Median-effect method. Dose-effect relationships were analyzed by the median-effect equation (Chou et al, Adv. Enz. Regul. 22, 27-55, 1984).

[7] = background statement; AZT in a clinical setting; cited from earlier work
[8] = test system: Mouse Ecotropic, CNS (CAS-Br-M); assay: UV/XC assay for murine retroviruses in SC-1 cells; type: cell-based, murine retrovirus; details: Table 2; read-out: EC-50 Mouse Ecotropic, CNS (CAS-Br-M)
Procedure: UV/XC Assay for Murine Retroviruses Cells. Mouse embryo fibroblasts (SC-1) and XC cells were obtained from the American Type Culture Collection, Rockville, Md. […] The cells were maintained in Eagle's minimum essential medium with Hanks balanced salt solution, supplemented with penicillin (100 U/ml), streptomycin (100 μg/ml), sodium bicarbonate (24 mM), Hepes (25 mM), and either 2 (maintenance) or 10 (growth) percent inactivated newborn or fetal calf serum.
Virus quantitation by UV-XC assay. The XC test (Rowe et al, Virology 42, 1136-1139, 1970) is a plaque-type of assay which tests for the presence and titer of B- and N-tropic murine leukemia viruses. Because these viruses produce no overt signs of infection of SC-1 mouse cells, it is necessary to overlay the virus producing culture with an indicator cell line, XC. The number of syncytia that are produced is a direct measure of the virus titer in FFU.
Six-well plates were seeded with 1×10^5 SC-1 mouse cells on the first day. On the following day the medium was removed and the inoculum (0.2 ml) was added in medium containing polybrene (4 μg/ml). For determining the antiviral activity of the compounds in culture, the virus dilution selected produced in untreated cultures about 80 foci per well. […] Control cells without virus but receiving the drug provided an estimate of the drug's toxic effects as quantitated by using trypan blue staining.

[9] = target: T1, HIV-1 reverse transcriptase (Human immunodeficiency virus type 1 group M subtype B, UniProt P04585); assay: Evaluation of compounds on purified retroviral RT (cell-free, virion-derived); type: biochemical; details: Table 2; read-out: EC-50 Cell-Free RT (virion-derived)
T1 construct: HIV-1 RT was isolated from detergent disrupted virions; made in house; host or cells: virions pelleted from culture fluid of HIV-1-infected PHA-stimulated human PBMC; DEAE-cellulose and phosphocellulose chromatography
Procedure: Evaluation of compounds on purified retroviral RT. HIV-1 RT was isolated from detergent disrupted virions obtained from the cell-free supernatant of infected PHA-stimulated PBMC. The enzyme was purified by passing the extract through ion-exchange chromatography columns, as described previously (Eriksson et al, Antimicrob. Agents Chemother. 31, 600-604, 1977. Briefly, 750 ml of culture fluid harvested from HIV-1-infected PBMC were ultracentrifuged to pellet the virus. The pellet was dissolved in buffer A [50 mM Tris-HCl, pH 7.9/0.25% Nonidet P-40/5 mM dithiothreitol/20% (vol/vol) glycerol] containing 1 mM EDTA, and freeze-thawed four times. After clarification by centrifugation, the enzyme was partially purified from the supernatant by passing the extract through a DEAE-cellulose column (Whatman DE-52; 2.6×15 cm) previously equilibrated with buffer B (50 mM Tris-Cl, pH 7.9, 50 mM KCl, 1 mM EDTA, 1 mM dithiothreitol, 20% glycerol). Elution was performed using a linear gradient 50-500 mM KCl in buffer B. Fractions containing enzyme activity were dialyzed against buffer B and were further purified on a phosphocellulose column (Whatman P-11) using a linear KCl (50-500 mM) gradient in buffer B. The peak fractions were pooled and dialyzed against buffer B. The enzyme was characterized as HIV-1 reverse transcriptase based on its cation, salt, pH, and template requirements according to previous descriptions (Eriksson et al, Antimicrob. Agents Chemother. 31, 600-604, 1977). The standard reaction mixture was used to evaluate the inhibitory effect of the drugs, as previously described (Eriksson et al, Antimicrob. Agents Chemother. 31, 600-604, 1977). Briefly, the reaction mixtures (final volume 100 μl) contained 100 mM Tris-HCl, pH 8.0, 50 mM KCl, 2 mM MgCl2, 5 mM DTT, 400 ug/ml bovine serum albumin, 3 μg/ml (rA)·(dT)12-18 and 1 μM of [^3H]TTP (specific activity 82.3 Ci/mmol). The reactions were started by the addition of 10 μl of partially purified RT, incubated at 37° C. for 60 min., and processed as previously described (Eriksson et al, Antimicrob. Agents Chemother. 31, 600-604, 1977).
Median-effect method. Dose-effect relationships were analyzed by the median-effect equation (Chou et al, Adv. Enz. Regul. 22, 27-55, 1984). The slope (m) and median effective and inhibitory concentration (EC50 and IC50) values were obtained by using a computer program developed by Chou and Chou (Chou et al, Elsevier-Biosoft, Elsevier Science Publishers, Cambridge, U.K., 1985).

[10] = Table 2, several values per cell, some in brackets, read-out: EC-50 HIV-1 (LAV-1)

Substance: (NH4)17Na[NaSbgW21O86] [Formula 1, reference compound]
- toxicity to human bone marrow cells (order of toxicity, FIG. 6) [1]: most toxic
- toxicity to human bone marrow cells [2]: high toxicity
- pH at which it degrades [3]: < 4
- IC50 [4]: 35000 nM
- Hct (hematocrit) ([5]; bled on day 17): 14.82 ± 4.44%
- Hgb (hemaglobin) ([5]; bled on day 17): 5.5 ± 1.43 g/dL
- MCH ([5]; bled on day 17): 17.64 ± 2.07 pg
- MCHC (mean corpuscular hemoglobin concentration) ([5]; bled on day 17): 37.66 ± 4.32 g/dL
- MCV (mean corpuscular volume) ([5]; bled on day 17): 46.86 ± 0.4
- PLT (platelates) (×1000) ([5]; bled on day 17): 226.4 ×1000
- RBC (×1000000) ([5]; bled on day 17): 3.16 ± 0.95 ×1000000
- RDW (width of red cells) ([5]; bled on day 17): 35.6 ± 2.12%
- WBC (×1000) ([5]; bled on day 17): 4.16 ± 1.45 ×1000
- Mortality ([5]; dead/total): 0/5
- EC50 ([6]; Table 1, read-out: EC50 Anti-HIV-1 Activity in Human PBM Cells): 390 nM
- EC50 [6, 10]: 290 nM
- adverse effect [7]: induces thrombocytopenia

Substance: K5BW12O40 [α-K5BT]
- EC50 [8]: 910 nM
- EC50 [6, 10]: 360 nM
- EC50 [9]: 2900 nM

Source: patent US6911470B1, “Polyoxometalate compounds as antiviral agents” (priority 1988, dated 2005)
